Like-named read-outs stand apart in the source and are kept apart here.
What was measured:
Caco-2 cells = experiment: Caco2 permeability (bi-directional); assay type: in vitro ADME, human; conditions: Caco-2, apical to basolateral
In short: (§1)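 Bidirectional transport across Caco-2 monolayers was run for 1 h at 37 °C with shaking, with 50 μM Lucifer Yellow in the donor to check monolayer integrity (acceptance ≤100 nm/s). Apical and basal compound levels were measured by LC-MS/MS, and efflux ratio was taken as PappB>A/PappA>B.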

MMP13 in SW1353 cells = experiment: OSM/IL-1β signaling assay (MMP13 levels in SW1353 cells); assay type: cell-based; conditions: Homo sapiens, read-out: MMP13 EC50;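 note: secreted MMP13 captured by antibody, activated with APMA and its activity read by fluorescence, inhibition scaled between vehicle-treated triggered wells (0%) and untriggered wells (100%)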
[1] = system: JAK-STAT signalling in HeLa cells; experiment: JAK-STAT signalling assay (OSM-triggered pSTAT1(2)-luciferase reporter in HeLa cells); assay type: cell-based; conditions: Homo sapiens, read-out: STAT signalling EC50
In short: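 HeLa cells transiently transfected with pSTAT1(2)-luciferase reporter plus LacZ internal control, incubated overnight at 37 °C, 10% CO2, then OSM-stimulated with compound. Luciferase read by Steadylite luminescence and normalised to β-galactosidase (ONPG); percent inhibition from controls, EC50 from dose-response.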

[2] = Caco2 permeability (bi-directional); assay type: in vitro ADME, human; conditions: human, pH 7.4; Caco-2, apical to basolateral; read-out: Papp (A2B)
In short: as §1

[3] = Microsomal stability, human liver microsomes; assay type: in vitro ADME; conditions: percentage of compound remaining after 60 minutes, 3 μM compound
In short: (§2)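 Compound was incubated with liver microsomes plus an NADP+/glucose-6-phosphate/G6PDH/MgCl2 regenerating system at 37°C for 1 h. Reactions were stopped 1:1 with MeOH or ACN and analysed by LCMS.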

TNF-alpha release = experiment: Septic shock model (LPS-induced TNF release); assay type: in vivo, mouse; conditions: 30 mg/kg po, BALB/cJ mice, LPS ip; statistically significant
Description: Injection of lipopolysaccharide (LPS) induces a rapid release of soluble tumour necrosis factor (TNF-alpha) into the periphery. This model is used to analyse prospective blockers of TNF release in vivo.
Six BALB/cJ female mice (20 g) per group were treated at the intended dosing once, po. Thirty minutes later, LPS (15 μg/kg; E. Coli serotype 0111:B4) was injected ip. Ninety minutes later, mice were euthanized and blood was collected. Circulating TNF alpha levels were determined using commercially available ELISA kits. Dexamethasone (5 μg/kg) was used as a reference anti-inflammatory compound. Selected compounds are tested at one or multiple doses, e.g. 3 and/or 10 and/or 30 mg/kg, po.

[4] = system: Collagen Induced Arthritis (CIA); experiment: Rat CIA model; assay type: in vivo; conditions: therapeutic dosing day 16 to day 30, p.o., statistical significance in several of the readouts
Description: Completed Freund's adjuvant (CFA) and incomplete Freund's adjuvant (IFA) were purchased from Difco. Bovine collagen type II (CII), lipopolysaccharide (LPS), and Enbrel were obtained from Chondrex (Isle d'Abeau, France); Sigma (P4252, L'Isle d'Abeau, France), Whyett (25 mg injectable syringe, France) Acros Organics (Palo Alto, Calif.), respectively. All other reagents used were of reagent grade and all solvents were of analytical grade.
Dark Agouti rats (male, 7-8 weeks old) were obtained from Harlan Laboratories (Maison-Alfort, France). Rats were kept on a 12 hours light/dark cycle (0700-1900). The temperature was maintained at 22° C., and food and water were provided ad libitum.
One day before the experiment, CII solution (2 mg/mL) was prepared with 0.05 M acetic acid and stored at 4° C. Just before the immunization, equal volumes of adjuvant (IFA) and CII were mixed by a homogenizer in a pre-cooled glass bottle in an ice water bath. Extra adjuvant and prolonged homogenization might be required if an emulsion is not formed. 0.2 mL of the emulsion was injected intradermally at the base of the tail of each rat on day 1, a second booster intradermal injection (CII solution at 2 mg/mL in CFA 0.1 mL saline) was performed on day 9. This immunization method was modified from published methods (Sims N A et al., (2004) Targeting osteoclasts with zoledronic acid prevents bone destruction in collagen-induced arthritis, Arthritis Rheum. 50 2338-2346; Jou et al., 2005).
The therapeutic effects of the test compounds were tested in the rat CIA model. Rats were randomly divided into equal groups and each group contained 10 rats. All rats were immunized on day 1 and boosted on day 9. Therapeutic dosing lasted from day 16 to day 30. The negative control group was treated with vehicle (MC 0.5%) and the positive control group with Enbrel (10 mg/kg, 3× week, s.c.). A compound of interest was typically tested at 3 doses, e.g. 3, 10, 30 mg/kg, p.o.
Arthritis was scored according the method of Khachigian 2006, Lin et al 2007 and Nishida et al. 2004. The swelling of each of the four paws was ranked with the arthritic score as follows: 0-no symptoms; 1-mild, but definite redness and swelling of one type of joint such as the ankle or wrist, or apparent redness and swelling limited to individual digits, regardless of the number of affected digits; 2-moderate redness and swelling of two or more types of joints; 3-severe redness and swelling of the entire paw including digits; 4-maximally inflamed limb with involvement of multiple joints (maximum cumulative clinical arthritis score 16 per animal) (Nishida et al., 2004).
Clinically, body weight loss is associated with arthritis (Shelton et al., 2005; Argiles et al., 1998; Rall, 2004; Walsmith et al., 2004). […] The change in body weight (%) after onset of arthritis was calculated as follows: […]
X-ray photos were taken of the hind paws of each individual animal. A random blind identity number was assigned to each of the photos, and the severity of bone erosion was ranked by two independent scorers with the radiological Larsen's score system as follows: 0-normal with intact bony outlines and normal joint space; 1—slight abnormality with any one or two of the exterior metatarsal bones showing slight bone erosion; 2—definite early abnormality with any three to five of the exterior metatarsal bones showing bone erosion; 3—medium destructive abnormality with all the exterior metatarsal bones as well as any one or two of the interior metatarsal bones showing definite bone erosions; 4—severe destructive abnormality with all the metatarsal bones showing definite bone erosion and at least one of the inner metatarsal joints completely eroded leaving some bony joint outlines partly preserved; 5—mutilating abnormality without bony outlines. This scoring system is a modification from Salvcmini et al., 2001; Bush et al., 2002; Sims et al., 2004; Jou et al., 2005. […]

[5] = Microsomal stability, rat liver microsomes; assay type: in vitro ADME; conditions: percentage of compound remaining after 60 minutes, 3 μM compound
In short: as §2

Compound | Papp (A2B) (Caco-2 cells) | EC50 (MMP13 in SW1353 cells; SW1353 cells, OSM and IL-1β triggered, MMP13 levels 48 hours after triggering) [µM] | EC50 ([1]; HeLa cells, OSM-triggered pSTAT1(2)-luciferase reporter) [µM] | Papp A→B at 1 h, 10 µM [2] [×10⁻⁶ cm/s] | Microsomal Stability Human (%) [3] | EC50 (MMP13 in SW1353 cells; SW1353, 48 h) [µM] | reduction in the TNF release (TNF-alpha release) [%] | efficacy in all readouts of the rat CIA study [4] | Microsomal Stability Rat (%) [5] | EC50 ([1]; HeLa) [µM]
N#CC1CN(C(=O)c2ccc(-c3cccc4nc(NC(=O)C5CC5)nn34)cc2)C1 [Compound 328, Cyclopropanecarboxylic acid {5-[4-(3-cyano-azetidine-1-carbonyl)-phenyl]-[1,2,4]triazolo[1,5-a]pyridin-2-yl)-amide] | 0.2! cmx10-6sec-1 | > 1 | 0.501 to 1 | – | – | – | – | – | – | –
O=C(Nc1nc2cccc(-c3ccc(CN4CCS(=O)(=O)CC4)cc3)n2n1)C1CC1 [Compound 200, Cyclopropanecarboxylic acid {5-[4-(1,1-dioxo-thiomorpholin-4-ylmethyl)-phenyl]-[1,2,4]triazolo[1,5-a]pyridin-2-yl}-amide] | – | – | – | 4.65 | **** (**** 76-100) | > 1 | > 50 | efficacious in all readouts | *** (*** 51-75) | 0.501 to 1

From US10206907B2, “Compounds useful for the treatment of degenerative and inflammatory diseases” (GALAPAGOS NV, priority 2008, dated 2019)
